Data on one compound can be found in patent US9968645B2, “Method for enhanced production of morinda metabolites” (priority 2014, dated 2018).

This test relates to DSS-induced ulcerative colitis in mouse. Put plainly: Acute mouse ulcerative colitis model, colitis induced by 4% dextran sulfate (DSS). It counts as in vivo. Particulars: Male BalbC mice, 20 mg/kg co-fed with 4% DSS for 7 days. On the procedure:
The therapeutic efficacy of the methanolic extracts of MO hairy roots was examined in an acute mouse ulcerative colitis model. The mouse ulcerative colitis model is used to predict ulcerative colitis and treatment of that disease in human subjects (e.g. Low et. al., 2013). Male BalbC mice in groups of 10 were housed in Good Animal Care Protocol conditions. Colitis was induced by 4% dextran sulfate (DSS). In a pilot dosing study (50 mg/kg, 150 mg/kg, and 450 mg/kg) of MO root extracts on UC, an unexpected finding was made. […] Subsequently the effect of drug treatment on colitis was investigated by co-feeding the mice extracts from MO native plants or hairy root culture at doses below 50 mg/kg along with 4% DSS for 7 days. 5-amino-salicylic acid (5-ASA) was used as a positive treatment control. Animals were weighed, and stool consistency was monitored daily to determine the disease activity index (DAD. All animals were anesthetized and the colons were separated from the proximal rectum, and the colon length was measured between the ileo-cecal junction and the proximal rectum. [table]

Regarding `Nc1ccc(O)c(C(=O)O)c1` [5-ASA, 5-amino-salicylic acid], the “DAI (disease activity index)” value amounted to 3.0 ± 2.22 and the Length of colon amounted to 6.77 ± 0.19 cm. For the setting “including disruption of colonic crypts and damaged glandular structures”, the “% of mice developing ulcer” value stood at 60%.
